{
  "source": "paper PMC4046646",
  "about": "(Molecular psychiatry, 2013)",
  "key": {"LeuT [1]": {"molecular_target": "LeuT (Aquifex aeolicus, UniProt O67854, A289M, form not given)", "experiment": "DEER spectroscopy", "type": "binding", "details": "200 mM NaCl; 4-fold molar excess of Leu over LeuT"}, "LeuT [2]": {"molecular_target": "LeuT (Aquifex aeolicus, UniProt O67854)", "experiment": "DEER spectroscopy", "type": "binding", "details": "200 mM NaCl; 4-fold molar excess of Leu over LeuT"}},
  "data": [
    {"smiles": "CC(C)C[C@H](N)C(=O)O", "note": "[Leu]", "values": [
      {"measurement": "DEER spectroscopy (Q-band, 83 K), ligand-induced conformational change", "setting": "LeuT [1]", "result": "LeuT A289M with Na^+ and Leu bound in the vestibule has a destabilized bound structure"},
      {"measurement": "DEER spectroscopy (Q-band, 83 K), ligand-induced conformational change", "setting": "LeuT [2]", "result": "Subsequent Leu binding resets the closed EL4 conformation in the occluded conformation of the transporter"}
    ]}
  ]
}
